Like-named read-outs stand apart in the source and are kept apart here.
Target: T1, mouse TMEM16A mutant Y598A (Mus musculus, UniProt Q8BHY3, Y598A)
T1 construct: expressed in transfected cells; host or cells: HEK293T
T1 sequence (Q8BHY3 1-960 Y598A): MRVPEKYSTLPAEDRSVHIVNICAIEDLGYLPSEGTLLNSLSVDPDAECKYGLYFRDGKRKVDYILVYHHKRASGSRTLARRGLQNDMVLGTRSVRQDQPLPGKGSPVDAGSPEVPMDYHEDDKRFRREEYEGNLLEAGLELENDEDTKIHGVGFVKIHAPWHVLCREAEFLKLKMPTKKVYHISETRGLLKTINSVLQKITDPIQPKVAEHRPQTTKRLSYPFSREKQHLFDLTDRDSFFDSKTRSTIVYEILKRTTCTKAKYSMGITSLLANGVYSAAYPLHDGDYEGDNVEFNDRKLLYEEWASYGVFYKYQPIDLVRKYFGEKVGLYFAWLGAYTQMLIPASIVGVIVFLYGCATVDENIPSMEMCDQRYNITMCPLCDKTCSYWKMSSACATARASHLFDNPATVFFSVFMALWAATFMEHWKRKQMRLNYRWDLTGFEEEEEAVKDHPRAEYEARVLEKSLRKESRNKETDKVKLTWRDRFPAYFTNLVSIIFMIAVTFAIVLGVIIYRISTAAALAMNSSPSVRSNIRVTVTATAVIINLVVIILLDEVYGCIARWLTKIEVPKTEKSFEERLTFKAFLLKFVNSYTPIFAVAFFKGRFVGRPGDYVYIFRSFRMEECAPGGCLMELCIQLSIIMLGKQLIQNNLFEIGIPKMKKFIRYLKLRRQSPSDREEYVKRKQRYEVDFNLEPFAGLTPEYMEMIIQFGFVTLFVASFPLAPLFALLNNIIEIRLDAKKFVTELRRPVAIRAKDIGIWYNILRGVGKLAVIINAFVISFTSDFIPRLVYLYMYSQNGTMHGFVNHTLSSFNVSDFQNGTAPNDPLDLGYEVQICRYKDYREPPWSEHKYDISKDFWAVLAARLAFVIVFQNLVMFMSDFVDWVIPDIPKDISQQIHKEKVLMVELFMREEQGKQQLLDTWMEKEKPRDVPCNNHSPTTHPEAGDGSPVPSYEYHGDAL
Assay: Inside-out patch recording of 1PBC block, mutant Y598A
Type: cell-based
Conditions: for remaining activity at 3 µM: 1PBC conc 3; for remaining activity at 3 µM / remaining activity at 10 µM / remaining activity at 30 µM: read-out: relative current in 1PBC (avr); for remaining activity at 10 µM: 1PBC conc 10; for remaining activity at 30 µM: 1PBC conc 30
Procedure: HEK293T cells (ATCC CRL-1573) were maintained in Dulbecco’s modified Eagle’s medium (DMEM; Sigma-Aldrich) supplemented with 10 U ml^−1 penicillin, 0.1 mg ml^−1 streptomycin (Sigma-Aldrich), 2 mM L-glutamine (Sigma-Aldrich), and 10% FBS (Sigma-Aldrich) in a humidified atmosphere containing 5% CO2 at 37 °C. HEK293S GnTI^− cells (ATCC CRL-3022) were maintained in HyClone HyCell TransFx-H medium (GE Healthcare) supplemented with 10 U ml^−1 penicillin, 0.1 mg ml^−1 streptomycin, 4 mM L-glutamine, 0.15% poloxamer 188 (Sigma-Aldrich), and 1% FBS in an atmosphere containing 5% CO2 at 185 rpm at 37 °C. The ac splice variant of mouse TMEM16A (UniProt ID: Q8BHY3), mouse TMEM16B (UniProt ID: Q8CFW1), or mouse TMEM16F (UniProt ID: Q6P9J9) bearing a 3C cleavage site, a Venus YFP, a Myc tag, and a Streptavidin-binding peptide (SBP) downstream of the open reading frame in a modified pcDNA3.1 vector (Invitrogen) were used as described previously[21],[31]. Mutations were introduced using a modified QuikChange method[58] and were verified by sequencing.
HEK293T cells were transfected with 3–4 μg DNA per 6 cm Petri dish using the calcium phosphate co-precipitation method and were used within 24–96 h after transfection. Recordings were performed on inside-out patches excised from HEK293T cells expressing the construct of interest. Patch pipettes were pulled from borosilicate glass capillaries (O.D. 1.5 mm, I.D. 0.86 mm, Sutter Instrument) and were fire-polished with a microforge (Narishige) before use. Pipette resistance was typically 3–8 MΩ when filled with the recording solutions detailed below. Seal resistance was typically 4 GΩ or higher. Voltage-clamp recordings were made using Axopatch 200B, Digidata 1550, and Clampex 10.7 (Molecular Devices). Analog signals were filtered with the in-built 4-pole Bessel filter at 10 kHz and were digitized at 20 kHz. Solution exchange was achieved using a gravity-fed system through a theta glass pipette mounted on an ultra-fast piezo-driven stepper (Siskiyou). […] All recordings were performed at 20 °C.
A symmetrical ionic condition was used throughout. Stock solution with Ca^2+-EGTA contained 150 mM NaCl, 5.99 mM Ca(OH)2, 5 mM EGTA, and 10 mM HEPES at pH 7.40. Stock solution with EGTA contained 150 mM NaCl, 5 mM EGTA, and 10 mM HEPES at pH 7.40. Free Ca^2+ concentrations were adjusted by mixing the stock solutions at the required ratios calculated using the WEBMAXC program (http://web.stanford.edu/~cpatton/webmaxcS.htm). Patch pipettes were filled with the stock solution with Ca^2+-EGTA, which has a free Ca^2+ concentration of 1 mM. 1PBC (ChemBridge) stock was reconstituted in anhydrous DMSO (Sigma-Aldrich) at 100 mM and stored at −20 °C. Working solutions with 1PBC were prepared by serial dilution. Unless otherwise stated, experiments were performed at a saturating Ca^2+ concentration as shown in Supplementary Table 1 and the primary data were corrected for current rundown as described previously[21],[25].
Concentration-response relations, obtained from the ratio of the I-V plots before and after the application of the blocker, were fitted to the Hill equation,1 I/Imax=1/1+IC50/[blocker]^h where I/Imax is the normalized current responses, IC50 defines the concentration at which inhibition is at its half-maximum, and h is the Hill coefficient.

N#Cc1c(C(F)(F)F)cc(O)n2c1nc1ccccc12 [1PBC]
IC50 (0 mV, 2 µM Ca2+): 5 µM
remaining activity at 3 µM (0 mV): 62.2%
remaining activity at 10 µM (0 mV): 32.7%
remaining activity at 30 µM (0 mV): 16.1%
normalised current (avr) (1PBC 3, V 0 mV): -0.0008127
normalised current (avr) (1PBC 3, V 20 mV): 0.0806
normalised current (avr) (1PBC 3, V 40 mV): 0.1479
normalised current (avr) (1PBC 3, V 60 mV): 0.2094
normalised current (avr) (1PBC 3, V 80 mV): 0.2692
normalised current (avr) (1PBC 3, V 100 mV): 0.3374
normalised current (avr) (1PBC 3, V 120 mV): 0.4035
normalised current (avr) (1PBC 3, V 140 mV): 0.5334
normalised current (avr) (1PBC 3, V -20 mV): -0.0953
normalised current (avr) (1PBC 3, V -40 mV): -0.2038
normalised current (avr) (1PBC 3, V -60 mV): -0.3243
normalised current (avr) (1PBC 3, V -80 mV): -0.4624
normalised current (avr) (1PBC 3, V -100 mV): -0.5959
normalised current (avr) (1PBC 3, V -120 mV): -0.7447
normalised current (avr) (1PBC 3, V -140 mV): -0.8933
normalised current (avr) (1PBC 10, V 0 mV): -0.0004268
normalised current (avr) (1PBC 10, V 20 mV): 0.04176
normalised current (avr) (1PBC 10, V 40 mV): 0.07281
normalised current (avr) (1PBC 10, V 60 mV): 0.101
normalised current (avr) (1PBC 10, V 80 mV): 0.1339
normalised current (avr) (1PBC 10, V 100 mV): 0.1691
normalised current (avr) (1PBC 10, V 120 mV): 0.2139
normalised current (avr) (1PBC 10, V 140 mV): 0.279
normalised current (avr) (1PBC 10, V -20 mV): -0.05063
normalised current (avr) (1PBC 10, V -40 mV): -0.1149
normalised current (avr) (1PBC 10, V -60 mV): -0.2039
normalised current (avr) (1PBC 10, V -80 mV): -0.3102
normalised current (avr) (1PBC 10, V -100 mV): -0.4329
normalised current (avr) (1PBC 10, V -120 mV): -0.5455
normalised current (avr) (1PBC 10, V -140 mV): -0.6513
normalised current (avr) (1PBC 30, V 0 mV): -0.0002099
normalised current (avr) (1PBC 30, V 20 mV): 0.02319
normalised current (avr) (1PBC 30, V 40 mV): 0.04085
normalised current (avr) (1PBC 30, V 60 mV): 0.05628
normalised current (avr) (1PBC 30, V 80 mV): 0.08124
normalised current (avr) (1PBC 30, V 100 mV): 0.1064
normalised current (avr) (1PBC 30, V 120 mV): 0.1384
normalised current (avr) (1PBC 30, V 140 mV): 0.17
normalised current (avr) (1PBC 30, V -20 mV): -0.02219
normalised current (avr) (1PBC 30, V -40 mV): -0.05555
normalised current (avr) (1PBC 30, V -60 mV): -0.09343
normalised current (avr) (1PBC 30, V -80 mV): -0.1537
normalised current (avr) (1PBC 30, V -100 mV): -0.2141
normalised current (avr) (1PBC 30, V -120 mV): -0.2888
normalised current (avr) (1PBC 30, V -140 mV): -0.3717
IC50 (20 mV, 2 µM Ca2+): 4.35 µM
remaining activity at 3 µM (20 mV): 57.7%
remaining activity at 10 µM (20 mV): 29.9%
remaining activity at 30 µM (20 mV): 16.6%
IC50 (40 mV, 2 µM Ca2+): 3.57 µM
remaining activity at 3 µM (40 mV): 52.9%
remaining activity at 10 µM (40 mV): 26.1%
remaining activity at 30 µM (40 mV): 14.6%
IC50 (60 mV, 2 µM Ca2+): 3.16 µM
remaining activity at 3 µM (60 mV): 49.9%
remaining activity at 10 µM (60 mV): 24.1%
remaining activity at 30 µM (60 mV): 13.4%
log-fold IC50 (change of mutant vs WT) (80 mV): 0.1976
IC50 (80 mV, 2 µM Ca2+): 3.04 µM
remaining activity at 3 µM (80 mV): 48.1%
remaining activity at 10 µM (80 mV): 23.9%
remaining activity at 30 µM (80 mV): 14.5%
IC50 (100 mV, 2 µM Ca2+): 3.06 µM
remaining activity at 3 µM (100 mV): 48%
remaining activity at 10 µM (100 mV): 24.1%
remaining activity at 30 µM (100 mV): 15.1%
IC50 (120 mV, 2 µM Ca2+): 3.13 µM
remaining activity at 3 µM (120 mV): 47.7%
remaining activity at 10 µM (120 mV): 25.3%
remaining activity at 30 µM (120 mV): 16.4%
IC50 (140 mV, 2 µM Ca2+): 3.81 µM
remaining activity at 3 µM (140 mV): 53.3%
remaining activity at 10 µM (140 mV): 27.9%
remaining activity at 30 µM (140 mV): 17%
IC50 (-20 mV, 2 µM Ca2+): 5.71 µM
remaining activity at 3 µM (-20 mV): 66.7%
remaining activity at 10 µM (-20 mV): 35.5%
remaining activity at 30 µM (-20 mV): 15.5%
IC50 (-40 mV, 2 µM Ca2+): 7.02 µM
remaining activity at 3 µM (-40 mV): 71.1%
remaining activity at 10 µM (-40 mV): 40.1%
remaining activity at 30 µM (-40 mV): 19.4%
IC50 (-60 mV, 2 µM Ca2+): 8.86 µM
remaining activity at 3 µM (-60 mV): 75.3%
remaining activity at 10 µM (-60 mV): 47.3%
remaining activity at 30 µM (-60 mV): 21.7%
IC50 (-80 mV, 2 µM Ca2+): 11.2 µM
remaining activity at 3 µM (-80 mV): 79.4%
remaining activity at 10 µM (-80 mV): 53.2%
remaining activity at 30 µM (-80 mV): 26.4%
IC50 (-100 mV, 2 µM Ca2+): 13.5 µM
remaining activity at 3 µM (-100 mV): 81.5%
remaining activity at 10 µM (-100 mV): 59.2%
remaining activity at 30 µM (-100 mV): 29.3%
IC50 (-120 mV, 2 µM Ca2+): 15.9 µM
remaining activity at 3 µM (-120 mV): 85.1%
remaining activity at 10 µM (-120 mV): 62.4%
remaining activity at 30 µM (-120 mV): 33%
IC50 (-140 mV, 2 µM Ca2+): 18 µM
remaining activity at 3 µM (-140 mV): 87.9%
remaining activity at 10 µM (-140 mV): 64.1%
remaining activity at 30 µM (-140 mV): 36.6%
IC50 (Y598A, V 0 mV): 5 µM
IC50 (Y598A, V 20 mV): 4.35 µM
IC50 (Y598A, V 40 mV): 3.57 µM
IC50 (Y598A, V 60 mV): 3.16 µM
IC50 (Y598A, V 80 mV): 3.04 µM
IC50 (Y598A, V 100 mV): 3.06 µM
IC50 (Y598A, V 120 mV): 3.13 µM
IC50 (Y598A, V 140 mV): 3.81 µM
IC50 (Y598A, V -20 mV): 5.71 µM
IC50 (Y598A, V -40 mV): 7.02 µM
IC50 (Y598A, V -60 mV): 8.86 µM
IC50 (Y598A, V -80 mV): 11.2 µM
IC50 (Y598A, V -100 mV): 13.5 µM
IC50 (Y598A, V -120 mV): 15.9 µM
IC50 (Y598A, V -140 mV): 18 µM

Source: paper PMC9120017, “Inhibition mechanism of the chloride channel TMEM16A by the pore blocker 1PBC” (Nature Communications, 2022)
